How the values were obtained:
[1] = target: T1, PKA phosphorylated RyR2-R2474S (Homo sapiens, UniProt Q92736, R2474S); assay: Cryo-EM analysis with normalized difference in RMSD (pairwise domain comparison)
T1 construct: Each fragment was subcloned into a full-length human RYR2 construct in pCMV5 vector; made in house; host or cells: HEK293 (RyR2-R2474S, transient); E. coli BL21(DE3) (GST-calstabin-2)
Protocol: Each of the final samples (3 μl each) prepared in EXAMPLE 5 was applied to UltrAuFoil holey gold grids (Quantifoil R 0.6/1.0, Au 300) previously cleaned with easiGlow (PELCO). Grids were blotted with ashless filter paper (Whatman) using blot force 10 and blot time 8 s before vitrification by plunge-freezing into liquid ethane chilled with liquid nitrogen using Vitrobot Mark IV (Thermo Fisher Scientific) operated at 4° C. with 100% relative humidity.
Prepared grids were screened in-house on a Glacios Cryo-TEM (Thermo Fisher Scientific) microscope with a 200-kV x-FEG source and a Falcon 3EC direct electron detector (Thermo Fisher Scientific). Microscope operations and data collection were carried out using EPU software (Thermo Fisher Scientific). High-resolution data collection was performed at Columbia University on a Titan Krios 300-kV (Thermo Fisher Scientific) microscope equipped with an energy filter (slit width 20 eV) and a K3 direct electron detector (Gatan). Data were collected using Leginon and at a nominal magnification of ×105,000 in electron counting mode, corresponding to a pixel size of 0.83 Å. The electron dose rate was set to 16 e^−/pixel per second with 2.5-s exposures for a total dose of 50 to 60 e/A2.
Cryo-EM data processing was performed in cryoSPARC with image stacks aligned using Patch motion, defocus value estimation by Patch CTF estimation. Particle picking was performed using the template picker with templates created from preexisting cryo-EM maps. Particles were subjected to 2D classification in cryoSPARC with 100 classes. Particles from the highest-resolution classes were pooled for ab initio 3D reconstruction with a single class followed by homogeneous refinement with C4 symmetry imposed. 3D variability and further clustering were performed using a mask comprising the TM domain to separate those particles in the closed and open states followed by heterogeneous refinement with four classes to further select the best particles. C4 symmetry expansion was performed before local refinements. The masks used were TaF+TM+CTD domains (residues 4131 to 4967), calstabin-2+NTD+SPRY domains (residues 1 to 1646), JSol+CSol domains (residues 1700 to 2476, 3590 to 4130), and BSol domain (residues 2400 to 3344). Only the TaF+TM+CTD mask used C4 symmetry. Smaller masks, for a second round of 3D variability analysis, clustering, and local refinement, were RY1&2 (residues 862 to 1076), RY3&4 (residues 2685 to 2909), and BSol2 (residues 3042 to 3344). Local refinements used a dynamical mask with a far distance of 10, 50, and 150 Å for the initial masks, small masks, and expanded RY3&4 mask for comparing the effect of RY3&4 stabilization, respectively. The resulting maps were combined in ChimeraX to generate a composite map before calibration of the pixel size using correlation coefficients with a map generated from the crystal structure of the NTD of RyR2 (PDB ID: 4JKQ). The pixel size was altered by 0.001 Å per step, up to 20 steps in each direction.
An initial model of RYR2 was generated with Phenix tool sculptor from a 2.45-Å structure of RyR1 (PDB ID: 7TZC). Truncated residues were manually corrected to obtain the full side chains. Only domains RY1&2 and RY3&4, which show weak cryo-EM density and confidence in structure, were based on crystallographic structures. The initial model of RyR2 RY1&2 domain was generated with Phenix tool sculptor from the RY1&2 domain of RyR3 with ATP (PDB ID: […]). The model of RyR2 RY3&4 domain was obtained as is (PDB ID: 4ETV). Calstabin-2 and CaM models were obtained as is (PDB ID: 6JI8). Model building was performed in Coot and refined with Phenix tool RealSpaceRefine.
This analysis determined the conformation of a certain query domain from a model X relative to reference closed and open states of RyR2. To this end, the RMSD of Ca of the query domain was measured between model X and the closed state (RMSDX-closed), and between model X and the open state (RMSDX-open). […]

[2] = tested on: Ryr2^R2474S/WT mice; assay: Telemetric electrocardiogram recordings during epinephrine arrhythmia provocation; assay type: in vivo
Excerpt: Ryr2^R2474S/WT mice were implanted with radio telemetry transmitters (Data Sciences International). Briefly, the transmitter (PhysioTel, ETA-F10 transmitter) was inserted in mice subcutaneously along the back under general anesthesia (5% inhaled isoflurane). Two electrocardiogram (ECG) electrodes were placed hypodermically in the region of the right shoulder (negative pole) and toward the lower left chest (positive pole) to approximate lead II of the Einthoven surface ECG. During the procedure, respiratory and cardiac rhythm, adequacy of anesthetic depth, muscle relaxation, body temperature, and analgesia were monitored to avoid anesthesia-related complications. Postoperative pain was considered during a 1-week post-implantation period, and carprofen (5 mg/kg, subcutaneously) was given. A minimum period of 2 weeks was allowed for recovery from the surgery. Animals were housed in individual stainless-steel cages for telemetry recordings. Environmental parameters were recorded continuously and maintained within a fixed range: room temperature at 15° C. to 21° C. and 45 to 65% relative humidity. The artificial day/night cycle was 12-hour light/12-hour dark with light on at 0700 hours. Drinking water was provided ad libitum. Solid diet ([…]) was given daily in the morning. ECG waveforms were continuously recorded at a sampling rate of 2000 Hz using a signal transmitter-receiver (RPC-1) connected to a data acquisition system (Ponemah system, Data Sciences International). Compound 1 (50 mg/kg per day) was given in drinking water for 2 weeks before ECG recordings. Mice were recorded for 1 hour at baseline and then given epinephrine injection (1 mg/kg, intraperitoneally) and recorded for another 2 hours. The animals used in the study were maintained and studied according to protocols approved by the Institutional Animal Care and Use Committee of Columbia University (reference no. AC-AABP1551).

[3] = target: T2, RyR2-R2474S channels (Mus musculus, UniProt E9Q401, R2473S); assay: SR Ca^2+ leak assay in heart microsomes (Fluo-4); assay type: biochemical; conditions: heart microsomes from mice treated with epinephrine and Compound 1 in vivo
T2 construct: Cardiac muscle SR microsomes were prepared by homogenizing heart samples on ice; from tissue; host or cells: heart of Ryr2 R2474S/WT mice (SR microsomes)
Protocol: Ca^2+ leak was measured in microsomes from heart lysates isolated from control Ryr^2R2474S/WT mice, Ryr^2R2474S/WT mice treated with epinephrine, and Ryr^2R2474S/WT mice treated with epinephrine and Compound 1 in EXAMPLE 8. […] Cardiac muscle SR microsomes were prepared by homogenizing heart samples on ice using a Teflon glass homogenizer (50 times) with 2 volumes of 20 mM tris-maleate (pH 7.4), 1 mM EDTA, 1 mM DTT, and protease inhibitors (Roche). Homogenate was then spun by centrifuge at 4000 g for 15 min at 4° C., and the resultant supernatant was spun by centrifuge at 50,000 g for 45 min at 4° C. Pellets were resuspended in lysis buffer containing 300 mM sucrose. Microsomes ([…]) were diluted into a buffer (pH 7.2) containing 8 mM K-phosphocreatine, and creatine kinase (2 U/ml), mixed with 3 μM Fluo-4 and added to multiple wells of a 96-well plate. Ca^2+ loading of the microsomes was initiated by adding 1 mM ATP. After Ca^2+ uptake (50 s), 3 μM thapsigargin was added to inhibit the Ca^2+ reuptake by SERCA. SR Ca^2+ leak was measured by the increase in intensity of the Fluo-4 signal (measured in a Tecan fluorescence plate reader). Ca^2+ leak was quantified as the difference between the average Fluo-4 signal before and after addition of thapsigargin. Graphs were plotted with GraphPad Prism software.

[4] = target: T3, recombinant RyR2 (Homo sapiens, UniProt Q92736); assay: Single channel recordings in planar lipid bilayers (open probability); assay type: biochemical; conditions: xanthine 10 μM; Ca2+ 150 nM
T3 construct: expressed in transfected cells; host or cells: HEK293
T3 sequence (Q92736 whole entry): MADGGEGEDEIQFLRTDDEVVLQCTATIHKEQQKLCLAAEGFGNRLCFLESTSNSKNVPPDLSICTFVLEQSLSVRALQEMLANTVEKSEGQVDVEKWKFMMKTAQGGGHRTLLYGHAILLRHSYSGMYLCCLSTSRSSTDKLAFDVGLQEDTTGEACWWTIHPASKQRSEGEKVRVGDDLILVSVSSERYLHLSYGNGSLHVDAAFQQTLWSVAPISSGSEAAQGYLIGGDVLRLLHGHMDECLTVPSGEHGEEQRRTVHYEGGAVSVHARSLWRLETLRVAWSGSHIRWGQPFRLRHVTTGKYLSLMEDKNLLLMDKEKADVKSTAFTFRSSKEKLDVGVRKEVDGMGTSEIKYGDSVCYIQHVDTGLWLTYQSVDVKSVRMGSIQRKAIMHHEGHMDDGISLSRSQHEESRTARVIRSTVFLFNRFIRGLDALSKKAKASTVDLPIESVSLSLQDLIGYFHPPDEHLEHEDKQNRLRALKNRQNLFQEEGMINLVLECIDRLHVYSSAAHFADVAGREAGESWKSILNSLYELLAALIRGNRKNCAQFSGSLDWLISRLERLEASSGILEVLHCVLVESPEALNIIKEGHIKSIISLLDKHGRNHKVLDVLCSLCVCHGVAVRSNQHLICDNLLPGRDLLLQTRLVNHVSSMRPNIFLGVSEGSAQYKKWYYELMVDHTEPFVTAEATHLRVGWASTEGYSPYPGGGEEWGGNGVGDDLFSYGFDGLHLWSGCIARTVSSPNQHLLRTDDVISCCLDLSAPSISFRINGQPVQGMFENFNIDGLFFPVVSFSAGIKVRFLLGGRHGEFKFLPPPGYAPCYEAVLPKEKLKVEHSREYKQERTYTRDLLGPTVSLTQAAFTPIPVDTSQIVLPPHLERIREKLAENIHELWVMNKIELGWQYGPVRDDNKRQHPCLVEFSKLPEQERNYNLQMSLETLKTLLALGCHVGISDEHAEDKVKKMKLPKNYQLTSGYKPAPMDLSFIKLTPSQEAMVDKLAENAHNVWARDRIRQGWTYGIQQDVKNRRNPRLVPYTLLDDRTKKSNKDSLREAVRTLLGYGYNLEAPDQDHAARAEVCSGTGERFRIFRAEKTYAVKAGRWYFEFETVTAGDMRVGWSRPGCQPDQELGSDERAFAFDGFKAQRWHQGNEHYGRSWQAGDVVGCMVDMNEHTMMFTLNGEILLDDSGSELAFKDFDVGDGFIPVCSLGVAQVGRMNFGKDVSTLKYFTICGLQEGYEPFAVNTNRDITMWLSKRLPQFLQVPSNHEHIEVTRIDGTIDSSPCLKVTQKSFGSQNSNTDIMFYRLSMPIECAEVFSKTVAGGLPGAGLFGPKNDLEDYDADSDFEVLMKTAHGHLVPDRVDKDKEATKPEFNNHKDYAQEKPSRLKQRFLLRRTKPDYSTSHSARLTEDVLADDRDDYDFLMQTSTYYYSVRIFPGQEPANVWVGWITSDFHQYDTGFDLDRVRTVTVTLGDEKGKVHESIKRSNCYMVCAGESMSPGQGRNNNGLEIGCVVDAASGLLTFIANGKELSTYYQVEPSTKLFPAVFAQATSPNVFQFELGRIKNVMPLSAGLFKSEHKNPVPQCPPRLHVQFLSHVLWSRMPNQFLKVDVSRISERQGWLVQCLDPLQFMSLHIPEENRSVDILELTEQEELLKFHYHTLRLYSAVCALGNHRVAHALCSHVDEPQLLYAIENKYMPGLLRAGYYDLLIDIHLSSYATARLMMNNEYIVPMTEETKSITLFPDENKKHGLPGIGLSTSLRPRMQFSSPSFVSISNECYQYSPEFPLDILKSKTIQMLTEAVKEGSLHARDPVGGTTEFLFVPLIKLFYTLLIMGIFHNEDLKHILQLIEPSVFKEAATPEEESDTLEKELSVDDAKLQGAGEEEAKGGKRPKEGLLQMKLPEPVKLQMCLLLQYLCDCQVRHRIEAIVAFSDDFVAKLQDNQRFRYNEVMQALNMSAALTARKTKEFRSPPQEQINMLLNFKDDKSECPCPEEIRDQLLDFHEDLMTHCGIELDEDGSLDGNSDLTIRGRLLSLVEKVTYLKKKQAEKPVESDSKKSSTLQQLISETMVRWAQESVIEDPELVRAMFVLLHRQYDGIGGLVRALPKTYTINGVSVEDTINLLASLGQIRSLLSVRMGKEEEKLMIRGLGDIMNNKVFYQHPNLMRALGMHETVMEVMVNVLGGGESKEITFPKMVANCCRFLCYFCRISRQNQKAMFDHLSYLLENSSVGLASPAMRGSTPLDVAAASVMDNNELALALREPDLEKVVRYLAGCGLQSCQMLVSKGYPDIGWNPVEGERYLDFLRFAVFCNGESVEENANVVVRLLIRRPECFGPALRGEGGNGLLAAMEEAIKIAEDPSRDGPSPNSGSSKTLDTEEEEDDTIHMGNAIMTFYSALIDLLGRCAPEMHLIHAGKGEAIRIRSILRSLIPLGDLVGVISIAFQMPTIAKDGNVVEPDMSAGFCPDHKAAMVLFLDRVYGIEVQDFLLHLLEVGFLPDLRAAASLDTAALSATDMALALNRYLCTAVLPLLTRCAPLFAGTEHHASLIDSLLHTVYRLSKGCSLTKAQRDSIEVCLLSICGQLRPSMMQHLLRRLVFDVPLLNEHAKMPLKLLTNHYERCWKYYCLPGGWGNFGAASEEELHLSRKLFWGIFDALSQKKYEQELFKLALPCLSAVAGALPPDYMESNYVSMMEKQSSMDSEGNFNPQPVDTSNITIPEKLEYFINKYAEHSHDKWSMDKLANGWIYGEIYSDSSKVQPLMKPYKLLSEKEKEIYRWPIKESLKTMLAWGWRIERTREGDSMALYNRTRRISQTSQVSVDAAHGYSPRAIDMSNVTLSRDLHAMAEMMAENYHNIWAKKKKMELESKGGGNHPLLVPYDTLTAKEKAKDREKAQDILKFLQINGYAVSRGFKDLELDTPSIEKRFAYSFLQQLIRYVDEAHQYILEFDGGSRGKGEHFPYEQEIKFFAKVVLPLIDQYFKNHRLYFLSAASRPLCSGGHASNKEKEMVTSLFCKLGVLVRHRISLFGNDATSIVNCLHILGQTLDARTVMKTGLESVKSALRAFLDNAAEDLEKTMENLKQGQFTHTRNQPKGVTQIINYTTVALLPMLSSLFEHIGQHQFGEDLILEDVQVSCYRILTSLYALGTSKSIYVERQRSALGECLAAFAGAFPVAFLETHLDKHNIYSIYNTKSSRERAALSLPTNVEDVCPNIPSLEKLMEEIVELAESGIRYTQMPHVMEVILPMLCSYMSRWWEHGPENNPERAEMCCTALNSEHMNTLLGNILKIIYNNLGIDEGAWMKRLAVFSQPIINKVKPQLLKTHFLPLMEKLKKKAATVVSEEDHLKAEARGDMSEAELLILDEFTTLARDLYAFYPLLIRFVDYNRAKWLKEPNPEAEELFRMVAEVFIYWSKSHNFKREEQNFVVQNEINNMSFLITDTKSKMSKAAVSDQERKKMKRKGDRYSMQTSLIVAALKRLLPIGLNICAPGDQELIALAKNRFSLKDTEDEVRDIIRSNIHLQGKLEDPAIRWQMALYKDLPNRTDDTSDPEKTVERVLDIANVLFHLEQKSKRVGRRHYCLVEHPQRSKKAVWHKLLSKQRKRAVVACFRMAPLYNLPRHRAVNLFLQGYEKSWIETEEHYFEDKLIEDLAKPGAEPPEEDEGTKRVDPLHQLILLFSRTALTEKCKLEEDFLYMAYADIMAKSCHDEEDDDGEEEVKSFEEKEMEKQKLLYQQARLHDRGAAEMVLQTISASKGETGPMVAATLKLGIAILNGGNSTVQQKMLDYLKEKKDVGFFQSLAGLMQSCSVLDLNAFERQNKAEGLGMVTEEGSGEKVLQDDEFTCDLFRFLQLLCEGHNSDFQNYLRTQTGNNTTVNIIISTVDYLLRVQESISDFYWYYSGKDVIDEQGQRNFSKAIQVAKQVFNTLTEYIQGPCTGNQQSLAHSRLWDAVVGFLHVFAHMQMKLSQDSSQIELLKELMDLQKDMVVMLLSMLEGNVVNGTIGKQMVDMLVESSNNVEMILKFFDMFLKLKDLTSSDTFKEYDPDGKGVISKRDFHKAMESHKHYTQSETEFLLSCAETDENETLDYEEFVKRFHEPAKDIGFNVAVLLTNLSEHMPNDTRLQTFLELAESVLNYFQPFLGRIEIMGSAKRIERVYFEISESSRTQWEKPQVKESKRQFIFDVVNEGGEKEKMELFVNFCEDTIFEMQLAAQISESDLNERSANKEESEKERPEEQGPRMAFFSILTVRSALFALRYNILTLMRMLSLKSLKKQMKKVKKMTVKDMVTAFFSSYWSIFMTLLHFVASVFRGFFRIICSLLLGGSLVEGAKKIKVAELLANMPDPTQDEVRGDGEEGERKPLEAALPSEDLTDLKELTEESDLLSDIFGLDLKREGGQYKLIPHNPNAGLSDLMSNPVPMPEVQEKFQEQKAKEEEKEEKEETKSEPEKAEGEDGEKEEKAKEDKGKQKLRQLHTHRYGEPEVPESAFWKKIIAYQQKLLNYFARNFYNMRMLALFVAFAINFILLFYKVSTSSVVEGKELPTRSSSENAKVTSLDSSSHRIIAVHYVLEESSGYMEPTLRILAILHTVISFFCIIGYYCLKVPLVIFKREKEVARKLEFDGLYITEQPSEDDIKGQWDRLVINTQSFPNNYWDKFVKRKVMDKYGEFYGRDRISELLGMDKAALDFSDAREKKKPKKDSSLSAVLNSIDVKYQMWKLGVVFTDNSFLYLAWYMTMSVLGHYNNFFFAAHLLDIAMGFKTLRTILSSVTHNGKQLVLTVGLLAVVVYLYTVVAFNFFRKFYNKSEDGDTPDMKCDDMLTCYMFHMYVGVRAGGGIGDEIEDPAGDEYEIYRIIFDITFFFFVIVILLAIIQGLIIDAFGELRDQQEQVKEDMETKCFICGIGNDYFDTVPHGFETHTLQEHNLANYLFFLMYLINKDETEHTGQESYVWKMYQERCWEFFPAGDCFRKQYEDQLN
Protocol: To confirm the functional role of xanthine in RyR2, single-channel experiments were performed. ER vesicles from HEK293 cells expressing RyR2 were prepared by homogenizing cell pellets on ice using a Teflon glass homogenizer with two volumes of solution containing 20 mM tris-maleate (pH 7.4), 1 mM EDTA, 1 mM DTT, and protease inhibitors (Roche). Homogenate was then spun by centrifuge at 4000 g for 15 min at 4° C., and the resulting supernatant was spun by centrifuge at 40,000 g for 30 min at 4° C. The final pellet, containing the ER fractions, was resuspended and aliquoted in 250 mM sucrose, 10 mM Mops (pH 7.4), 1 mM EDTA, 1 mM DTT, and protease inhibitors. Samples were frozen in liquid nitrogen and stored at −80° C.
ER vesicles were fused to planar lipid bilayers formed by painting a lipid mixture of phosphatidylethanolamine and PC (Avanti Polar Lipids) in a 5:3 ratio in decane across a […] in polysulfonate cups (Warner Instruments) separating two chambers. […] The concentration of free Ca^2+ in the cis chamber was calculated as previously described. […] Single-channel currents were recorded at 0 mV using Bilayer Clamp BC-525D (Warner Instruments), filtered at 1 kHz using Low-Pass Bessel Filter 8 Pole (Warner Instruments), and digitized at 4 kHz. […] The recordings were analyzed using Clampfit 10.1 (Molecular Devices) and GraphPad Prism software.

[5] = P-RyR2-R2474S + Cpd1 vs closed/open PKA RyR2, 0 = closed state, 1 = open state
[6] = 50 mg/kg per day in drinking water for 2 weeks, epinephrine 1 mg/kg i.p.

T1 sequence (Q92736 whole entry R2474S, the tested form may be a part): as the sequence (Q92736 whole entry) above, with R2474S counted along it
T1 sequence (P68106 whole entry partner, the tested form may be a part): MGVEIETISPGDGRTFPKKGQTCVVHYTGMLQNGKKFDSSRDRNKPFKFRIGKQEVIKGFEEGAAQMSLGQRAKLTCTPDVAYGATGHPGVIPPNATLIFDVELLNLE

Compound: COc1ccc2c(c1)CN(Cc1ccc(C(=O)O)cc1)CCS2 [Compound 1]
- effect on the primed state of PKA-phosphorylated RyR2-R2474S (cryo-EM structure comparison) ([1]; 10 mM ATP, 150 nM free Ca2+, 500 μM xanthine): partially reversed the primed state
- Normalized difference in RMSD, BSol [1, 5]: 0.32
- Normalized difference in RMSD, BSol2 [1, 5]: 0.40
- Normalized difference in RMSD, NTD [1, 5]: 0.42
- Normalized difference in RMSD, SPRY [1, 5]: 0.41
- reduction toward the closed state in RMSD analysis compared to primed PKA-phosphorylated RyR2-R2474S ([1]; in some domains): more than 50%
- RMSD Cα BSol, P-RyR2-R2474S + Cpd1 (PDB:7UA1) vs P-RyR2-C (PDB:7U9Q) ([1]; vs closed PKA RyR2): 1.61 ± Å
- RMSD Cα NTD, P-RyR2-R2474S + Cpd1 (PDB:7UA1) vs P-RyR2-C (PDB:7U9Q) ([1]; vs closed PKA RyR2): 1.20 ± Å
- RMSD Cα SPRY, P-RyR2-R2474S + Cpd1 (PDB:7UA1) vs P-RyR2-C (PDB:7U9Q) ([1]; vs closed PKA RyR2): 0.88 ± Å
- RMSD Cα BSol2, P-RyR2-R2474S + Cpd1 (PDB:7UA1) vs P-RyR2-C (PDB:7U9Q) ([1]; vs closed PKA RyR2, 10 mM NaATP, 500 μM xanthine, 150 nM free Ca2+): 3.08 ± Å
- RMSD Cα CSol, P-RyR2-R2474S + Cpd1 (PDB:7UA1) vs P-RyR2-C (PDB:7U9Q) ([1]; vs closed PKA RyR2, aligned control domain, used as error): 0.53 Å
- RMSD Cα BSol2, P-RyR2-R2474S + Cpd1 (PDB:7UA1) vs P-RyR2-O (PDB:7U9R) ([1]; vs open PKA RyR2): 4.63 ± Å
- RMSD Cα BSol, P-RyR2-R2474S + Cpd1 (PDB:7UA1) vs P-RyR2-O (PDB:7U9R) ([1]; vs open PKA RyR2): 3.36 ± Å
- RMSD Cα NTD, P-RyR2-R2474S + Cpd1 (PDB:7UA1) vs P-RyR2-O (PDB:7U9R) ([1]; vs open PKA RyR2): 1.66 ± Å
- RMSD Cα SPRY, P-RyR2-R2474S + Cpd1 (PDB:7UA1) vs P-RyR2-O (PDB:7U9R) ([1]; vs open PKA RyR2): 1.25 ± Å
- RMSD Cα CSol, P-RyR2-R2474S + Cpd1 (PDB:7UA1) vs P-RyR2-O (PDB:7U9R) ([1]; vs open PKA RyR2, aligned control domain, used as error): 0.41 Å
- frequency of ventricular tachycardia [2, 6]: reduced the frequency of ventricular tachycardia
- sudden cardiac death (SCD) [2, 6]: prevented sudden cardiac death
- sustained ventricular tachycardia (sVT) ([2]; 50 mg/kg/day in drinking water, epinephrine 1 mg/kg): prevented sVT
- SR Ca^2+ leak (increase in Fluo-4 signal after thapsigargin) [3]: prevented SR Ca^2+ leak

Compound: O=c1[nH]c(=O)c2[nH]cnc2[nH]1 [xanthine]
- increase in the open probability of RyR2 [4]: ~25 fold
